Measured values: patent US6642392B1 (priority 1997, dated 2003)
Like-named read-outs stand apart in the source and are kept apart here.

Columns and labels:
Type in all cases: in vivo
Phytophthora infestans = conditions: for Test D disease control rating: tomato late blight; for Test D disease control rating (100 = 100% disease control, 0 = no disease control): tomato seedlings sprayed to run-off, inoculated the following day, rating relative to controls, unmarked compounds (standard test rate)
Puccinia recondita = assay: Test B: wheat leaf rust, preventive spray on wheat seedlings; conditions: for Test B disease control rating: wheat leaf rust; for Test B disease control rating (100 = 100% disease control, 0 = no disease control): wheat seedlings sprayed to run-off, inoculated the following day, rating relative to controls, unmarked compounds (standard test rate)
Procedure, shortened: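 Preventive test: P. recondita spores were applied one day after a run-off spray of compound suspension on wheat seedlings. Plants had 24 h at 20 °C in saturated air plus 6 days in a 20 °C growth chamber. Scoring is % disease control (100 = full) relative to controls.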

Botrytis cinerea = assay: Test E: gray mold, preventive spray on cucumber seedlings; conditions: for Test E disease control rating: gray mold on cucumber; for Test E disease control rating (100 = 100% disease control, 0 = no disease control): cucumber seedlings sprayed to run-off, inoculated the following day, rating relative to controls, unmarked compounds (standard test rate)
Procedure, shortened: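 Preventive spray on cucumber seedlings used a suspension (3% acetone, 250 ppm Trem 014), applied to run-off one day before inoculation with Botrytis cinerea spores. Plants were held 48 h at 20° C in saturated air, then 5 days at 20° C. Percent disease control was scored relative to untreated plants.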

[1] = test system: Eiysiphe graminis f. sp. tritici; assay: Test A: wheat powdery mildew, preventive spray on wheat seedlings; conditions: for Test A disease control rating: wheat powdery mildew; for Test A disease control rating (100 = 100% disease control, 0 = no disease control): wheat seedlings sprayed to run-off, inoculated the following day, rating relative to controls, unmarked compounds (standard test rate)
Procedure, shortened: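 Preventive test: seedlings inoculated with powdery mildew spores one day after run-off spraying of a suspension. Ratings after 7 days in a 20° C growth chamber express percent disease control versus controls.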

Pyricularia oryzae = conditions: for Test C disease control rating: rice blast; for Test C disease control rating (100 = 100% disease control, 0 = no disease control): rice seedlings sprayed to run-off, inoculated the following day, rating relative to controls, unmarked compounds (standard test rate)
[2] = 100 = 100% disease control, 0 = no control, unmarked entries (standard test concentration)
[3] = 100 = 100% disease control, 0 = no control relative to controls, unmarked entries (standard test concentration)

Row | SMILES | Test D disease control rating (Phytophthora infestans; [2]) [%] | Test B disease control rating (Puccinia recondita; [2]) [%] | Test E disease control rating (Botrytis cinerea; [2]) [%] | Test A disease control rating [1, 3] [%] | Test C disease control rating (Pyricularia oryzae; [2]) [%] | Test D disease control rating (100 = 100% disease control, 0 = no disease control) (Phytophthora infestans) [%] | Test B disease control rating (100 = 100% disease control, 0 = no disease control) (Puccinia recondita) [%] | Test E disease control rating (100 = 100% disease control, 0 = no disease control) (Botrytis cinerea) [%] | Test A disease control rating (100 = 100% disease control, 0 = no disease control) [1] [%] | Test C disease control rating (100 = 100% disease control, 0 = no disease control) (Pyricularia oryzae) [%] | also measured
1 | CCC1(C(=O)NC(C)COc2cc(C)ccc2Cl)C(C)C1(Cl)Cl (stereo not shown) [compound 127] |  |  |  |  |  |  |  |  |  |  | Test D disease control rating (Phytophthora infestans; tested at 40 ppm): 19%; Test B disease control rating (Puccinia recondita; tested at 40 ppm): 0%; Test E disease control rating (Botrytis cinerea; tested at 40 ppm): 0%; Test A disease control rating ([1]; tested at 40 ppm): 0%; Test C disease control rating (Pyricularia oryzae; tested at 40 ppm): 94%
2 | CCC1(C(=O)NC(C)COc2cccc(I)c2C#N)C(C)C1(Cl)Cl (mixture of isomers) [compound 132] | 2 | 0 | 0 | 0 | 0 |  |  |  |  |  | 
3 | CC(C)(C)C(C#N)C(=O)NC/C=C/c1ccc(Cl)cc1Cl (racemic) [compound 274] |  |  |  |  |  | 23 | 28 | 58 | 61 | 74 | 
4 | C[C@H](COc1cccc(I)c1)NC(=O)C(C#N)C(C)(C)C (single isomer, unassigned) [12b] | 68 | 0 | 0 | 77 | 94 |  |  |  |  |  | 
5 | C[C@H](COc1cc(F)c(F)cc1F)NC(=O)C(C#N)C(C)(C)C (single isomer, unassigned) [188a] | 56 | 0 | 0 | 0 | 97 |  |  |  |  |  | 
6 | C=CC(C)(CF)C(C#N)C(=O)NC(C)COc1cc(F)ccc1Cl (mixture of isomers) [compound 220] |  |  |  |  |  | 85 | 0 | 0 | 0 | 100 | 
7 | C[C@H](COc1c(Cl)ccc(Cl)c1Cl)NC(=O)C(C#N)C(C)(C)C (single isomer, unassigned) [171b] | 0 | 0 | 58 | 91 | 53 |  |  |  |  |  | 
8 | C=C(F)C(C)(C)C(C#N)C(=O)NC(C)COc1cc(F)ccc1F (mixture of isomers) [compound 217] |  |  |  |  |  | 0 | 0 | 0 | 0 | 99 | 
9 | C[C@H](COc1cc(Cl)ccc1Cl)NC(=O)C(C#N)C(C)(C)C (single isomer, unassigned) [33b] | 80 | 67 | 0 | 0 | 100 |  |  |  |  |  | 
10 | C[C@H](COc1cc(F)c(Cl)cc1F)NC(=O)C(C#N)C(C)(C)C (single isomer, unassigned) [173a] | 33 | 28 | 0 | 63 | 52 |  |  |  |  |  | 
11 | CC(C)(C)C(C#N)C(=O)NCCCc1ccccc1 (racemic) [compound 54] | 0 | 11 | 16 | 34 | 32 |  |  |  |  |  | 
12 | C=C(F)C(C)(C)C(C#N)C(=O)NC(C)COc1cc(F)ccc1Cl (mixture of isomers) [compound 223] |  |  |  |  |  | 41 | 28 | 0 | 62 | 100 | 
13 | CC(COc1c(F)ccc(F)c1C#N)NC(=O)C(C#N)C(C)C(C)(C)C (mixture of isomers) [compound 279] |  |  |  |  |  | 0 | 0 | 0 | 56 | 0 | 
14 | CC(COc1cc(C(C)(C)C)ccc1C#N)NC(=O)C(C#N)C(C)(C)C (mixture of isomers) [compound 305] |  |  |  |  |  | 0 | 0 | 0 | 0 | 53 | 
